Activity calls are given as the source filed them. Cut-off read from the data, not from the text of the source: actives have a measured AC50 and inactives only a lower limit.
Target: T1, Replicative DNA helicase DnaB (Mycobacterium tuberculosis, UniProt P9WMR3)
T1 sequence (P9WMR3 whole entry): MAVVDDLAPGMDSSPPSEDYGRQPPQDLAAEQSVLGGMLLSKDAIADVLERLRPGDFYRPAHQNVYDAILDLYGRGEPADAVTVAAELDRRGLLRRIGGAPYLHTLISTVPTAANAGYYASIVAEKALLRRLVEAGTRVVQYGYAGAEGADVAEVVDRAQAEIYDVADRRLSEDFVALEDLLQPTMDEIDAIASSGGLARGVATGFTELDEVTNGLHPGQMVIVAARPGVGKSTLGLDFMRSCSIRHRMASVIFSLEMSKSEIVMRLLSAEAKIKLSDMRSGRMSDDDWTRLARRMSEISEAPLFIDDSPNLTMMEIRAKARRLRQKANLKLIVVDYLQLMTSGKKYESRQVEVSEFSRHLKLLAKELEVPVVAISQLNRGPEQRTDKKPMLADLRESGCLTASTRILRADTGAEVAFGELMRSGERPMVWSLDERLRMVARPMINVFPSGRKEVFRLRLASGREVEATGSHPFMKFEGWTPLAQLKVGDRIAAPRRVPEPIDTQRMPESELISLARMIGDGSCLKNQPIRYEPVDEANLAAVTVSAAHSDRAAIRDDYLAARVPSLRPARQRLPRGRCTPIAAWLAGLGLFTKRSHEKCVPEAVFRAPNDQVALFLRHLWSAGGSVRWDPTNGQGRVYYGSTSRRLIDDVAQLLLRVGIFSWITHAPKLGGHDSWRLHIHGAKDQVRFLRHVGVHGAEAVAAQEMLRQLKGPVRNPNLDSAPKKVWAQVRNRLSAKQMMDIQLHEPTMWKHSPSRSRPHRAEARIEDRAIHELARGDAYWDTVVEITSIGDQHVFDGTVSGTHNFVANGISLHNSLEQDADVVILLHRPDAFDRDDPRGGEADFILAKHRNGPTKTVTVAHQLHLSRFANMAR
Test: DnaB intein splicing inhibitors, dose response, biochemical, cell-free fluorescence (AID 449749)
Assay type: functional

Structure (SMILES)	AC50
c1coc(-c2nnc(-c3ccco3)nn2)c1	5.79 µM (active)
COc1ccc(CC2=CC(=O)c3ccccc3C2=O)cc1	7.49 µM (active)
